Experimental data from PubChem BioAssay (NCI).
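Assay format: 96-well plates, 48-hour exposure. Abbreviation: GI50, concentration required for 50% inhibition of growth. TGI: total growth inhibition.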

These compounds were tested on MDA-MB-468 breast (assay: inhibition of tumour cell growth, NCI panel, 48 h).

| SMILES | GI50 [nM] | TGI [nM] |
| --- | --- | --- |
| C[C@]12CCc3nc(Nc4cccc(O)c4)sc3C1=CC[C@@H]1[C@@H]2CC[C@]2(C)/C(=N\NC(N)=S)CC[C@@H]12 | 1860 | 4230 |
| CC[C@@H]1[C@@H](C)O[C@@](O)([C@@H](C)[C@H](O)[C@H](C)[C@H]2OC(=O)/C=C/C=C/[C@H](C)[C@@H]([C@@H](C)[C@@H](O)[C@H](C)[C@@]3(O)C[C@@H](O[C@H]4C[C@@H](O)[C@H](O)C(C)O4)[C@H](CC)[C@@H](C)O3)OC(=O)/C=C/C=C/[C@@H]2C)C[C@H]1O[C@@H]1C[C@@H](O)[C@H](O)C(C)O1 (stereo not given in full) | 68.8 | 204 |
| O=C(COc1ccc(/C=C2\COc3ccccc3C2=O)cc1)Nc1nccs1 | 2040 | 4730 |
| CCOC(=O)C1=C(C)N=c2s/c(=C\c3ccccc3O)c(=O)n2C1c1ccc(OC)c2ccccc12 (stereo not given) | 4550 | 21200 |
| CCOC(=O)c1ccc(Nc2sc(C(=O)c3ccc(Br)cc3)c(N)c2C#N)cc1 | 666 | > 100000 |
| CC1(C)N=C(N)N=C(N)N1c1ccc(CCCCc2ccccc2)c(Cl)c1 | 19.6 | 1120 |
| COc1ccc(C(=O)Nc2ncc(Cc3cccc(Cl)c3)s2)cc1OC | 307 | > 95900 |
| COc1ccc(/C=C(/C(=O)N2CCN(c3ccccc3)CC2)c2cc(OC)c(OC)c(OC)c2)cc1N | 251 | > 100000 |
| NCCCNc1nc2ccccc2c2c(=O)c3cc(F)cc(F)c3sc12 | 1710 | 3810 |
| C=C(C)[C@@H]1CC[C@]2(COCCC#N)CC[C@]3(C)[C@H](CC[C@@H]4[C@@](C)(CCCNCCC#N)[C@H](C(=C)C)CC[C@]43C)[C@@H]12 | 17300 | > 50000 |
| CCN(CC)CCNc1ccc(C)c2sc3cc(Cl)ccc3c(=O)c12 | 2070 | 4210 |
| Cc1cc(Nc2ccc(OCc3ccccc3)cc2)nc2cc(O)ccc12 | 2590 | 8740 |
| Cc1cc(Cl)cc2c(N=Nc3ccc(S(N)(=O)=O)cc3)c(O)[nH]c12 | > 25000 | > 25000 |
| CN1CCC(COc2cnc(-c3cccc(Cn4nc(-c5cccc(C#N)c5)ccc4=O)c3)nc2)CC1 | 1490 | 3230 |
| Cc1ccc(NC(=O)c2ccc(CN3CCN(C)CC3)cc2)cc1Nc1nccc(-c2cccnc2)n1 | 13900 | 36200 |
| Cn1cc(C2=C(c3ccccc3[N+](=O)[O-])C(=O)NC2=O)c2ccccc21 | 4080 | 10500 |
| COc1ccc2sc3cccc(NCCN(C)C)c3c(=O)c2c1 | 2000 | 4500 |
| COc1cccc(CCC2CCCN(c3cc(C)nc(N)n3)C2)c1 (stereo not given) | 180 | 952 |
| CSc1ccc(-c2ccccc(=O)c2O)cc1 | 334 | 4180 |
| CN(C)c1ccc(/C=C/c2ccnc3c(O)cccc23)cc1 | 574 | 3340 |
| CC(C)(C)N1CCC1CN (stereo not given) | > 100000 | > 100000 |
| CCOC(=O)c1ccccc1OC(=O)NNc1ccccc1 | 11100 | > 100000 |
| Cc1cccc(-c2[nH]ncc2-c2ccc3ncccc3n2)n1 | 7340 | > 16500 |
| COC(=O)[C@@H](C)C[C@H](Cc1cn(C)c2ccccc12)NC(=O)c1csc([C@@H](C[C@H](C(C)C)N(C)C(=O)[C@@H](NC(=O)[C@H]2CCCCN2C)C(C)C)OC(C)=O)n1 | 5.85 | > 16700 |

| SMILES | GI50 [nM] | TGI [nM] |
| --- | --- | --- |
| C[C@]12CC[C@@H]3c4cc(OC(F)F)c(O)cc4CC[C@H]3[C@@H]1CC[C@@H]2OS(N)(=O)=O | 504 | 30400 |
| Oc1ccc(CSc2nnc(-c3ccncc3)o2)c2cccnc12 | 2270 | 8640 |
| CC[C@H]1CN2CCc3cc(OC)c(OC)cc3C2C[C@@H]1CC1NCCc2cc(OC)c(OC)cc21 (stereo not given in full) | 11.8 | 37.7 |
| NC1=CC(=O)c2cccnc2C1=O | 1350 | 3030 |
| Nc1c(C(=O)c2ccc(-c3cccnc3)cc2)cnn1-c1ccc(F)cc1 | > 25000 | > 25000 |
| O=C1CC[C@H](N2C(=O)c3cccc4c(Cc5ccc(CN6CCOCC6)cc5)ccc2c34)C(=O)N1 | 2730 | 62500 |
| c1ccc(N2N=C(c3cccc(Nc4ccncc4)c3)CC2c2ccc3c(c2)OCO3)cc1 (stereo not given) | 1470 | 3000 |
| NS(=O)(=O)OCC1OC(n2cnc3cncnc32)C(O)C1O (stereo not given) | 18.9 | 48.5 |
| COc1cc([C@@H]2c3cc4c(c(O)c3C[C@H]3COC(=O)[C@@H]32)OCO4)cc(OC)c1OC | 65.7 | 311 |
| Nc1ccccc1NC(=O)c1ccc(CNc2nccc(-c3cccnc3)n2)cc1 | 496 | 2250 |
| Cc1cc(=O)[nH]c(N/N=C/c2cc(Br)ccc2O)n1 | 460 | 16500 |
| COc1ccc(N=Cc2c(O)ccc3c2oc2cc(Cl)c(O)c(Cl)c23)cc1 | 14200 | 67600 |
| O=C1/C(=C\c2ccc(F)cc2)CN(C(=O)c2ccccc2)C/C1=C\c1ccc(F)cc1 | 1630 | 3710 |
| COc1cc2nccc(Oc3ccc(NC(=O)NC4CC4)c(Cl)c3)c2cc1C(N)=O | 12500 | > 80800 |
| CCN(CC)c1ccc(NC2=C(Cl)C(=O)c3nc(C)ccc3C2=O)cc1 | 1880 | 4050 |
| C[n+]1c(/C=C/c2c[nH]c3ccccc23)ccc2ccccc21 | 1800 | 13000 |
| CC[C@H](NC(=O)[C@H]1CCCCN1C)C(=O)N(C)[C@H](C[C@@H](OC(C)=O)c1nc(C(=O)N[C@@H](Cc2ccccc2)C[C@H](C)C(=O)O)cs1)C(C)C | 1.99 | > 14300 |
| N#Cc1c(NC(=O)NCc2ccccc2)sc2c1CCCC2 | 425 | 11300 |
| COC1=CC(c2ccc[nH]2)=N/C1=C\c1[nH]c(C)c(CC(=O)OCc2ccccc2)c1CCC(=O)OCc1ccccc1 | 510 | 2960 |
| CCCCCCCC/C=C/CCCCCCCC1=NC(C)(C)CN1CC(C)O (stereo not given) | 4870 | 10900 |
| Cc1ccc(Cl)cc1Nc1nc(C(F)(F)F)ccc1C(=O)N/N=C/c1cccnc1 | 1410 | 10200 |
| CCOC(=O)[C@@H](C)C[C@H](Cc1ccccc1)NC(=O)c1nc([C@@H](C[C@H](C(C)C)N(C)C(=O)[C@@H](NC(=O)[C@H]2CCCCN2C)C(C)C)OC(C)=O)sc1CCOCc1ccccc1 | 37.4 | 492 |
| COc1cc2c(c(OC)c1OC)-c1ccc(OC)c(=O)cc1[C@@H](N)CC2 | < 10 | – |
| CSC1=Nc2c(c(C)c(-c3ccccc3)n2CCCN2CCCCC2)C2=NC(=O)C[C@H](C)N12 | 2460 | 9510 |
